From US20190315711A1 (eXIthera Pharmaceuticals, Inc., priority 2016, published 2019)

Columns and labels:
Thrombin = molecular target: T1, Thrombin (Homo sapiens, UniProt P00734); experiment: Dose response assay for protease inhibitors: thrombin; format: biochemical; conditions: ratio versus Factor XIa
T1 construct: Thrombin; 0.2 μM in 50% glycerol (7.34 μg/mL)

Trypsin = molecular target: T2, Trypsin (Bos taurus, UniProt P00760); experiment: Dose response assay for protease inhibitors: trypsin; format: biochemical; conditions: ratio versus Factor XIa
T2 construct: gene PRSS1
T2 sequence (P00760 24-246): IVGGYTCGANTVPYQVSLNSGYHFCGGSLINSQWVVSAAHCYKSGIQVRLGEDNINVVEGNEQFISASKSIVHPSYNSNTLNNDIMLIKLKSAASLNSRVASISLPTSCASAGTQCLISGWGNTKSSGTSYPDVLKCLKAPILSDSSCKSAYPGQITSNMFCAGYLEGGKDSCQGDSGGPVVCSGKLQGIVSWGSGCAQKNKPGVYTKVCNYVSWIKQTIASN
Description: • Assay buffer: 20 mM Hepes, pH 7.4; 150 mM NaCl; 0.02% Tween 20 • Compounds: 10 mM stocks in DMSO • Substrate: 20 mM Glp-Pro-Arg-AMC, 25 mg/2.3 mL H2O (store at +4° C.) [Factor XIa, thrombin, and trypsin] • 20 mM Pro-Phe-Arg-AMC (Bachem I-1295), 25 mg/2.2 mL H2O or Boc-Leu-Gly-Arg-AMC (Bachem I-1105), 25 mg/2.07 mL H2O (store at +4° C.) [Factor Xa] • Enzyme: Factor XIa; 0.25 M in 50% glycerol (20 μg/mL) • Trypsin; 0.2 μM in 50% glycerol (4.8 μg/mL) • Thrombin; 0.2 μM in 50% glycerol (7.34 μg/mL) • Factor Xa; 0.2 μM in 50% glycerol (9.2 μg/mL)
• 1. Dilute the substrate to 100 μM in assay buffer (30 μL/6 mL). The enzyme is diluted to 0.5 nM just prior to use (12 L/6 mL for Factor XIa; 15 μL/6 mL for all of the rest.) • 2. Pipette 50 μL of substrate into each well of the 96 well (12×8) microtiter plate. (Column 1 is used as the 100% activity control and receives no compound, and Column 12 is the blank and receives no enzyme.) Add an additional 46 μL to column 2. • 3. Pipette 4 μL of each compound into the appropriate well in column 2 of the plate (unknowns assayed in triplicate, standard assayed in duplicate). The final compound concentration will be 1/50th of the stock. • 4. Serially two-fold dilute the compound by mixing the sample in column 2, removing 50 μL to the next well (column 3), mix and remove to column 4, etc. until column 11. After mixing column 11, remove 50 μL and discard. • 5. Pipette 50 μL of buffer into column 12. Initiate the reaction by adding 50 μL of enzyme solution to each well of columns 1-11 as rapidly as possible. • 6. Read the plate in a spectrophotometer (SpectraMax) at 30° C., wherein each well is measured every 60 s for 30 min. For Factor Xa assays, each well is measured every 1 min for a total of 60 min. • 7. For Factor XIa assays, the compounds are assayed, in duplicate, at 3 different starting concentrations, 20, 2, and 0.2 μM; 1:10, 1:100, and 1:1000 dilution of 10 mM stock or at 2, 0.2, and 0.02 μM; 1:100, 1:1000, and 1:10,000 dilution of 10 mM stock. Data for each concentration are combined for graphing and data fitting. • 8. Data can be used both for estimation of IC50 and for estimation of Kon.

[1] = Caco-2 cell permeability assay (A-B and B-A); format: in vitro ADME; conditions: human; for Papp A→B at 60 min, 10 μM: A-B direction; for Papp B→A at 40 min, 10 μM: B-A direction
Description: The following procedure was used to determine the ability of a test compound to cross Caco-2 cells (human intestinal epithelial cells derived from a colorectal adenocarcinoma). The cells were seeded at 1×10^5 cells/cm^2 in 96-well Multiscreen™ plates (Millipore). Permeability assays were performed with the cells at days 21-25 post-seeding. Cells are typically used for 15 consecutive passages in culture.
This assay can be performed in either the apical to basolateral (A−B) or basolateral to apical (B−A) direction. The test compound was prepared at 10 μM in HBSS-MES (pH 6.5) or HBSS-HEPES (pH 7.4) with a final DMSO concentration of 1%. The working solution was then centrifuged and the supernatant added to the donor side. The assay plate was incubated at 37° C. with gentle shaking for 60 min or 40 min for the A−B or B−A assay, respectively. Samples were aliquoted from the donor side at time zero and the end point, and from the receiver side at the end point.
Reference compounds, propranolol (highly permeable), labetalol (moderately permeable), ranitidine (poorly permeable), and colchicine (P-glycoprotein substrate) were included in each assay.
Samples are analyzed by HPLC-MS/MS using selected reaction monitoring. The HPLC system consists of a binary LC pump with autosampler, a C-18 column, and a gradient.
The apparent permeability coefficient (Papp) of the test compound (Equation 2) and its recovery (Equation 3) are calculated as follows: […]
wherein A is the surface area of the cell monolayer (0.11 cm^2), C is concentration of the test compound expressed as peak area, D denotes donor, and R is receiver. “0”, “mid,” and “end” denote time at zero, mid-point, and end of the incubation, respectively. At is the incubation time. V is the volume of the donor or receiver.
This is most likely due to non-specific binding or degradation.

human Factor XIa = human Factor XIa (Homo sapiens, UniProt P03951); experiment: Factor XIa enzyme inhibition assay (dose response, fluorogenic AMC substrate); format: biochemical; parameters: Enzyme: Factor XIa; conditions: purified enzyme; substrate 50 μM, enzyme 0.25 nM; read-out: hFXIa IC50
How it was run: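 Fluorogenic assay in 20 mM Hepes pH 7.4, 150 mM NaCl, 0.02% Tween 20 with 0.25 nM enzyme and 50 μM Glp-Pro-Arg-AMC (final). Fluorescence read every minute for 30 min at 30 °C after serial two-fold compound dilution; IC50 from four-parameter Hill fit of dose-response curves.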

Chain of human Factor XIa (P03951 388-625 limits assumed): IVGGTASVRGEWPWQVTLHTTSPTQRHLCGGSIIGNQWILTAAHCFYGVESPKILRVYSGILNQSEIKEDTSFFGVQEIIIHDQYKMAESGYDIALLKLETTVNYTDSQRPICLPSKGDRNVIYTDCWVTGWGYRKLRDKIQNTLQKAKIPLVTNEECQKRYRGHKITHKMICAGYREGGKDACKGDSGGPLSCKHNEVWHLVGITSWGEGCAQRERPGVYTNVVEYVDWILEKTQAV
Chain of human Factor XIa (P03951 19-387 partner limits assumed): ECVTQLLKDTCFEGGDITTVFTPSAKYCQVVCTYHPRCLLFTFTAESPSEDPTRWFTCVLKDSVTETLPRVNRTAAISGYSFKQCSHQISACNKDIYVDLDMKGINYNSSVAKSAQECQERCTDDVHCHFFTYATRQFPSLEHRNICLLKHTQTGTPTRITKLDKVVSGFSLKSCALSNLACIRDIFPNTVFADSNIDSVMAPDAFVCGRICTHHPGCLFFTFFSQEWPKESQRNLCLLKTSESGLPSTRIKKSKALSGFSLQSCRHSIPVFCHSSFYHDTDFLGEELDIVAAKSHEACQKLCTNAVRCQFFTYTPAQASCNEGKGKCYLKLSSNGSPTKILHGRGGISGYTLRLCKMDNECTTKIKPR

SMILES	Ratio: Thrombin/FXIa (Thrombin)	Ratio: Trypsin/FXIa (Trypsin)	Papp A→B at 60 min, 10 μM [1] [×10⁻⁶ cm/s]	Papp B→A at 40 min, 10 μM [1] [×10⁻⁶ cm/s]	IC50 (human Factor XIa) [nM]
CN(C(=O)[C@@H]1[C@@H](Cc2ccnc(N)c2)C(=O)N1C(=O)N[C@@H](C1CCCCC1)C(F)(F)F)c1cccnc1 [Compound 17]	G (“G” indicates 1-100)	G (“G” indicates 1-100)	11 to 30	11 to 30	10 to 100
CN(C(=O)[C@@H]1[C@@H](Cc2ccnc(N)c2)C(=O)N1C(=O)NC(c1ccccc1)c1ccccc1)c1ccncc1 [Compound 82]	H (“H” indicates 101-1000)	G (“G” indicates 1-100)	≤ 10	31 to 50	< 10
CC[C@@H](NC(=O)N1C(=O)[C@H](Cc2ccnc(N)c2)[C@H]1C(=O)N(C)c1ccncc1)c1ccccc1 [Compound 42]	H (“H” indicates 101-1000)	G (“G” indicates 1-100)	≤ 10	31 to 50	< 10
CC[C@@H](NC(=O)N1C(=O)[C@H](Cc2ccnc(N)c2)[C@H]1C(=O)N(C)c1ncccn1)c1cccc(Cl)c1 [Compound 121]	H (“H” indicates 101-1000)	G (“G” indicates 1-100)	11 to 30	11 to 30	< 10
CC[C@@H](NC(=O)N1C(=O)[C@H](Cc2ccnc(N)c2)[C@H]1C(=O)N(C)c1ncccn1)c1ccccc1 [Compound 84]	I (“I” indicates >500)	G (“G” indicates 1-100)	≤ 10	31 to 50	< 10
CN(C(=O)[C@@H]1[C@@H](Cc2ccnc(N)c2)C(=O)N1C(=O)N[C@@H](C1CCCCC1)C(F)(F)F)c1cccc(F)c1 [Compound 22]	G (“G” indicates 1-100)	G (“G” indicates 1-100)	11 to 30	≤ 10	< 10
CN(C(=O)[C@@H]1[C@@H](Cc2ccnc(N)c2)C(=O)N1C(=O)N[C@@H](C1CCCCC1)C1CC1)c1ccccc1 [Compound 36]	H (“H” indicates 101-1000)	G (“G” indicates 1-100)	31 to 50	11 to 30	< 10
CCN(C(=O)[C@@H]1[C@@H](Cc2ccnc(N)c2)C(=O)N1C(=O)N[C@@H](C1CCCCC1)C(F)(F)F)c1ccccc1 [Compound 24]	G (“G” indicates 1-100)	G (“G” indicates 1-100)	11 to 30	≤ 10	10 to 100
CC[C@@H](NC(=O)N1C(=O)[C@H](Cc2ccnc(N)c2)[C@H]1C(=O)N(C)c1ccccc1)C1CCCCC1 [Compound 27]	H (“H” indicates 101-1000)	G (“G” indicates 1-100)	11 to 30	11 to 30	< 10
CC[C@H](NC(=O)N1C(=O)[C@H](Cc2ccnc(N)c2)[C@H]1C(=O)N(C)c1ccncc1)c1ccccc1C [Compound 97]	H (“H” indicates 101-1000)	G (“G” indicates 1-100)	≤ 10	31 to 50	< 10
CC[C@@H](NC(=O)N1C(=O)[C@H](Cc2ccnc(N)c2)[C@H]1C(=O)N(C)c1ccncc1)c1cccc(OC)c1 [Compound 100]	H (“H” indicates 101-1000)	G (“G” indicates 1-100)	≤ 10	31 to 50	< 10
CC[C@@H](NC(=O)N1C(=O)[C@H](Cc2ccnc(N)c2)[C@H]1C(=O)N(CC)c1ncccn1)C1CCCCC1 [Compound 39]	I (“I” indicates >500)	G (“G” indicates 1-100)	11 to 30	11 to 30	< 10
CC[C@@H](NC(=O)N1C(=O)[C@H](Cc2ccnc(N)c2)[C@H]1C(=O)N(C)c1ncncn1)C1CCCCC1 [Compound 81]	H (“H” indicates 101-1000)	H (“H” indicates 101-1000)	11 to 30	11 to 30	< 10
CN(C(=O)[C@@H]1[C@@H](Cc2ccnc(N)c2)C(=O)N1C(=O)N[C@@H](C1CCCCC1)C(F)(F)F)c1cncnc1 [Compound 19]	G (“G” indicates 1-100)	G (“G” indicates 1-100)	11 to 30	31 to 50	< 10
CN(C(=O)[C@@H]1[C@@H](Cc2ccnc(N)c2)C(=O)N1C(=O)N[C@@H](C1CC1)C(F)(F)F)c1ccncc1 [Compound 77]	H (“H” indicates 101-1000)	–	≤ 10	31 to 50	10 to 100
CN(C(=O)[C@@H]1[C@@H](Cc2ccnc(N)c2)C(=O)N1C(=O)N[C@@H](C1CC1)C(F)(F)F)c1ncccn1 [Compound 78]	H (“H” indicates 101-1000)	–	11 to 30	> 50	10 to 100
